Where two headings read alike, the source gives them in different places.
Experiments:
[1] = molecular target: T1, butyrylcholinesterase from human serum (Homo sapiens, UniProt P06276); assay: Inhibition of butyrylcholinesterase from human serum (Ellman colorimetric method); format: biochemical
T1 construct: purchased Sigma Chemical; host or cells: human serum

[2] = molecular target: T2, acetylcholinesterase from human red blood cells (Homo sapiens, UniProt P22303); assay: Inhibition of acetylcholinesterase from human erythrocyte (Ellman colorimetric method); format: biochemical; details: for Activity against human red blood cells acetylcholinesterase (in words): Table 2 results
T2 construct: purchased Sigma Chemical; host or cells: human erythrocyte

[3] = molecular target: T3, acetylcholinesterase from electric eel (Electrophorus electricus, UniProt O42275); assay: biochemical
T3 construct: purchased Sigma Chemical; host or cells: electric eel

in vivo = details: rat, po
[4] = Cholinesterase Inhibition IC50, AChE hRBC, contact time 30'
[5] = Cholinesterase Inhibition IC50, AChE hRBC, contact time 60'
[6] = contact time 10', read-out: Cholinesterase Inhibition IC50, AChE hRBC
[7] = Cholinesterase Inhibition IC50, AChE hRBC, contact time 10'
[8] = Cholinesterase Inhibition IC50, AChE E.eel, contact time 10'
[9] = Cholinesterase Inhibition IC50, AChE E.eel, contact time 30'

T3 sequence (O42275 24-633): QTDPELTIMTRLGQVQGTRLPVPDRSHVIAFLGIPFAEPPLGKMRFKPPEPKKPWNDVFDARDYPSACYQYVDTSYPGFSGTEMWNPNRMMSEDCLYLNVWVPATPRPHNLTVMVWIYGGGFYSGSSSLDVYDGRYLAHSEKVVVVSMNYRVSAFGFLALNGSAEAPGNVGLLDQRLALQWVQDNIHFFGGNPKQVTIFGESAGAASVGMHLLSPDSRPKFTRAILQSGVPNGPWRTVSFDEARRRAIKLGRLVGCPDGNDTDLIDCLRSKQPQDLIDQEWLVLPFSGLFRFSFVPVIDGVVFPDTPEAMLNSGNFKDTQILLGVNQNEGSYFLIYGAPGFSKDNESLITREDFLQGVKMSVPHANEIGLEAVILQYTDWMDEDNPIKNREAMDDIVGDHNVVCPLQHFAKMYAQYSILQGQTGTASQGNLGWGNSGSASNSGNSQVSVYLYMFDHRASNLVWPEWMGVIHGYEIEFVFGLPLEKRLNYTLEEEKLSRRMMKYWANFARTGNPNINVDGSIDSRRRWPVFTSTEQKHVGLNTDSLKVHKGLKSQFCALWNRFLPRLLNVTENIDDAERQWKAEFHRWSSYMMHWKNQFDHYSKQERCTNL
T2 sequence (P22303 32-617 isoform P22303-2 limits assumed): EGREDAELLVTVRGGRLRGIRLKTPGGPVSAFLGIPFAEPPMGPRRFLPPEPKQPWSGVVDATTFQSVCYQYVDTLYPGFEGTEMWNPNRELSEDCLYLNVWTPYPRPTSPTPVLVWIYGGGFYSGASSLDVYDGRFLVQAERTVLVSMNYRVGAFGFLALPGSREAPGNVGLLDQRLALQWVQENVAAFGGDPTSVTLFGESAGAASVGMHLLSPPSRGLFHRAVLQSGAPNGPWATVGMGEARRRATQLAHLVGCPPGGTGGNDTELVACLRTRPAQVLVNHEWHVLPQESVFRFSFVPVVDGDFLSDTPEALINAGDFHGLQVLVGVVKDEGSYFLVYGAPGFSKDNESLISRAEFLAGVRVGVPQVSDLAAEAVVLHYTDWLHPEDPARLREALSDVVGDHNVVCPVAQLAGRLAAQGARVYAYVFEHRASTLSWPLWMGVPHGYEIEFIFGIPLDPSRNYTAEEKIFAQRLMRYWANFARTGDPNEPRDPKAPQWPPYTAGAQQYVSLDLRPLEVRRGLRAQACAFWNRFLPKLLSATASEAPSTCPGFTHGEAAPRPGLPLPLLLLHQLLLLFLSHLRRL
T1 sequence (P06276 29-602): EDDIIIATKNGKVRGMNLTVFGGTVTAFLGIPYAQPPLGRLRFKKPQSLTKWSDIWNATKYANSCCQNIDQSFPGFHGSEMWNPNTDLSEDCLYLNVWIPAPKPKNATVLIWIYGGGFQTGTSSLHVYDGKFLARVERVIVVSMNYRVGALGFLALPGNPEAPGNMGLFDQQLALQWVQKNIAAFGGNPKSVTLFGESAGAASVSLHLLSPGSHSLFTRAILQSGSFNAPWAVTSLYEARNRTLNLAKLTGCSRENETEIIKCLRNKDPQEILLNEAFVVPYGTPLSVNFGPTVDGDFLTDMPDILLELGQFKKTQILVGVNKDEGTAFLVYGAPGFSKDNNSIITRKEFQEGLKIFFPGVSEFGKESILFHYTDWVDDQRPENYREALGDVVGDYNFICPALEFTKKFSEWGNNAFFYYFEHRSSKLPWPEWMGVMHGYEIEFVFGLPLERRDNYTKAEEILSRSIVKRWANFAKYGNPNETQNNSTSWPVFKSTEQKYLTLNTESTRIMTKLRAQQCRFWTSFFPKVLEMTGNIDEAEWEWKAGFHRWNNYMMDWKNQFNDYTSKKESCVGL

Structure (SMILES)	IC50 [2, 7] [nM]	Activity against human red blood cells acetylcholinesterase (in words) [2]	further results
CN1CC[C@@]2(C)c3cc(OC(=O)NCCN4CCOCC4)ccc3N(C)[C@@H]12 [MF 214, N-morpholinylethylcarbamoyleseroline]	–	–	IC50 [1]: 4.1 µM; IC50 [2, 4]: 140 nM; IC50 [2, 5]: 110 nM; IC50 [2, 6]: 700 nM
CN1CC[C@@]2(C)c3cc(OC(=O)NCCCN4CCOCC4)ccc3N(C)[C@@H]12 [MF 218, N-morpholinylpropylcarbamoyleseroline]	–	–	IC50 [2, 6]: 3800 nM
CN1CCN(CCCCCCCCCCCCNC(=O)Oc2ccc3c(c2)[C@]2(C)CCN(C)[C@@H]2N3C)CC1 [MF 229]	60	Particularly active	IC50 [3, 8]: 40 nM
CN1CCN(CCCCCCCCNC(=O)Oc2ccc3c(c2)[C@]2(C)CCN(C)[C@@H]2N3C)CC1 [MF 230, N-(N-methylpiperazinyloctyl)carbamoyleseroline]	30	Particularly active	LD50 (in vivo): 27.7 mg/kg; IC50 [2, 4]: 50 nM; IC50 [3, 8]: 200 nM; IC50 [3, 9]: 80 nM
CN1CC[C@@]2(C)c3cc(OC(=O)NCCCCCCCCCCN4CCOCC4)ccc3N(C)[C@@H]12 [MF 231]	–	Particularly active	LD50 (in vivo): 40 mg/kg; IC50 [2, 6]: 40 nM; IC50 [3, 8]: 60 nM
CN1CC[C@@]2(C)c3cc(OC(=O)NCCCCCCCCCCCN4CCOCC4)ccc3N(C)[C@@H]12 [MF 232]	–	–	IC50 [2, 6]: 40 nM; IC50 [3, 8]: 70 nM
CN1CC[C@@]2(C)c3cc(OC(=O)NCCCCCCCCCN4CCOCC4)ccc3N(C)[C@@H]12 [MF 233]	–	Particularly active	IC50 [2, 6]: 60 nM; IC50 ([3]; read-out: Cholinesterase Inhibition IC50, AChE E.eel, contact time 10'): 140 nM
CCN(CC)CCCCCCCCNC(=O)Oc1ccc2c(c1)[C@]1(C)CCN(C)[C@@H]1N2C [MF 237]	110	Particularly active	IC50 [2, 4]: 70 nM; IC50 [2, 5]: 30 nM; IC50 [3, 8]: 340 nM; IC50 [3, 9]: 190 nM; IC50 ([3]; Cholinesterase Inhibition IC50, AChE E.eel, contact time 60'): 120 nM
CN1CC[C@@]2(C)c3cc(OC(=O)NCCCCCCCCN4CCSCC4)ccc3N(C)[C@@H]12 [MF 239]	50	Particularly active	LD50 (in vivo): 23.8 mg/kg
CC(=O)N1CCN(CCCCCCCCNC(=O)Oc2ccc3c(c2)[C@]2(C)CCN(C)[C@@H]2N3C)CC1 [MF 240]	240	–	–
CN1CC[C@@]2(C)c3cc(OC(=O)NCCCCCCCCN4CCCCC4)ccc3N(C)[C@@H]12 [MF 241, N-piperidinyloctylcarbamoyleseroline]	100	Particularly active	–
CN(CCCCCCCCN1CCOCC1)C(=O)Oc1ccc2c(c1)[C@]1(C)CCN(C)[C@@H]1N2C [MF 243, N-(morpholinyloctyl),N-methyl carbamoyl eseroline]	7400	–	–
CN1CCN(C(=O)CCCCCNC(=O)Oc2ccc3c(c2)[C@]2(C)CCN(C)[C@@H]2N3C)CC1 [MF 245]	5500	–	–
CC(=O)N1CCN(CCNC(=O)Oc2ccc3c(c2)[C@]2(C)CCN(C)[C@@H]2N3C)CC1 [MF 246]	20000	–	–
CCN(CC)CCCCCCCCCCNC(=O)Oc1ccc2c(c1)[C@]1(C)CCN(C)[C@@H]1N2C [MF 247]	17	Particularly active	–
CN1CC[C@@]2(C)c3cc(OC(=O)NCCCCCCCCCCN4CCCCC4)ccc3N(C)[C@@H]12 [MF 248]	19	Particularly active	LD50 (in vivo): 15.3 mg/kg
CN1CC[C@@]2(C)c3cc(OC(=O)NCCCCCCCCCCCCN4CCCCC4)ccc3N(C)[C@@H]12 [MF 249]	50	Particularly active	–
CN1CC[C@@]2(C)c3cc(OC(=O)NCCCCCCCCN4CC=CC4)ccc3N(C)[C@@H]12 [MF 250]	30	–	–
CN1CC[C@@]2(C)c3cc(OC(=O)NCCCCCCCCN4CCCC4)ccc3N(C)[C@@H]12 [MF 251, N-pyrrolidinyloctylcarbamoyleseroline]	70	Particularly active	–

Reference: patent publication US5424451A, “Process for preparing aminoalkylcarbamic esters of eseroline” (priority 1992, dated 1995)
